Results as given in US10301280B2 (Plexxikon Inc., priority 2012, dated 2019).

The compounds below were run on BaF3-FL KIT D816V or BaF3-FL KIT V560G/D816V cell line (assay: Cell-based assays of c-Kit mutant kinase activity (cell growth, ATPlite)). Conditions: at least one of the c-kit cell assays of Example 26.
Summary of the method: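 BaF3 cells dependent on full-length human KIT (D816V or V560G/D816V) seeded at 1×10^4 cells/well in RPMI with 10% FBS. Eight-point 1:3 dilutions from 10 μM top final (0.2% DMSO), 3 days at 37° C., 5% CO2. ATPlite luminescence gave IC50.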

Question: Which IC50 does the source give for `COc1nccc(-c2cc3cc(NC(=O)c4n[nH]c(C)c4C)cnc3[nH]2)c1Cl` [P-2249, N-(2-(3-chloro-2-methoxypyridin-4-yl)-1H-pyrrolo[2,3-b]pyridin-5-yl)-4,5-dimethyl-1H-pyrazole-3-carboxamide] here?
Answer: Its IC50 is under 10 µM.

Question: With `Cc1[nH]nc(C(=O)Nc2cnc3[nH]c(-c4ccncc4Cl)cc3c2)c1C` [P-2250, N-(2-(3-chloropyridin-4-yl)-1H-pyrrolo[2,3-b]pyridin-5-yl)-4,5-dimethyl-1H-pyrazole-3-carboxamide] as the compound, how does the IC50 read?
Answer: The IC50 was under 10 µM.

Question: For `Cc1cnccc1-c1cc2cc(NC(=O)c3n[nH]c(C)c3C)cnc2[nH]1` [P-2251, 4,5-dimethyl-N-(2-(3-methylpyridin-4-yl)-1H-pyrrolo[2,3-b]pyridin-5-yl)-1H-pyrazole-3-carboxamide], which IC50 is on record?
Answer: The IC50 was under 10 µM.

Question: `Cc1[nH]nc(C(=O)Nc2cnc3[nH]c(-c4cncc(F)c4)cc3c2)c1C` [P-2253, N-(2-(5-fluoropyridin-3-yl)-1H-pyrrolo[2,3-b]pyridin-5-yl)-4,5-dimethyl-1H-pyrazole-3-carboxamide] was tested. Which IC50 did it give?
Answer: The IC50 was under 10 µM.

Question: With `Cc1[nH]nc(C(=O)Nc2cnc3[nH]c(-c4cncc(C(F)(F)F)c4)cc3c2)c1C` [P-2254, 4,5-dimethyl-N-(2-(5-(trifluoromethyl)pyridin-3-yl)-1H-pyrrolo[2,3-b]pyridin-5-yl)-1H-pyrazole-3-carboxamide] as the compound, how does the IC50 read?
Answer: Its IC50 is under 10 µM.

Question: Which IC50 does the source give for `Cc1[nH]nc(C(=O)Nc2cnc3[nH]c(-c4ccc(C5CC5)nc4)cc3c2)c1C` [P-2255, N-(2-(6-cyclopropylpyridin-3-yl)-1H-pyrrolo[2,3-b]pyridin-5-yl)-4,5-dimethyl-1H-pyrazole-3-carboxamide] here?
Answer: The IC50 was under 10 µM.

Question: How did the IC50 turn out when `CCc1cncc(-c2cc3cc(NC(=O)c4n[nH]c(C)c4C)cnc3[nH]2)c1` [P-2256, N-(2-(5-ethylpyridin-3-yl)-1H-pyrrolo[2,3-b]pyridin-5-yl)-4,5-dimethyl-1H-pyrazole-3-carboxamide] was run?
Answer: Its IC50 is under 10 µM.

Question: `Cc1[nH]nc(C(=O)Nc2cnc3[nH]c(-c4ccccc4C(F)F)cc3c2)c1C` [P-2257, N-(2-(2-(difluoromethyl)phenyl)-1H-pyrrolo[2,3-b]pyridin-5-yl)-4,5-dimethyl-1H-pyrazole-3-carboxamide] was tested. Which IC50 did it give?
Answer: The IC50 was under 10 µM.

Question: How did the IC50 turn out when `Cc1cc(Cl)ccc1-c1cc2cc(NC(=O)c3n[nH]c(C)c3C)cnc2[nH]1` [P-2258] was run?
Answer: The IC50 was under 10 µM.

Question: Which IC50 does the source give for `Cc1cc(F)ccc1-c1cc2cc(NC(=O)c3n[nH]c(C)c3C)cnc2[nH]1` [P-2259, N-(2-(4-fluoro-2-methylphenyl)-1H-pyrrolo[2,3-b]pyridin-5-yl)-4,5-dimethyl-1H-pyrazole-3-carboxamide] here?
Answer: Its IC50 is under 10 µM.

Question: For `Cc1[nH]nc(C(=O)Nc2cnc3[nH]c(-c4ccc(F)cc4F)cc3c2)c1C` [P-2260, N-(2-(2,4-difluorophenyl)-1H-pyrrolo[2,3-b]pyridin-5-yl)-4,5-dimethyl-1H-pyrazole-3-carboxamide], which IC50 is on record?
Answer: Its IC50 is under 10 µM.

Question: With `Cc1[nH]nc(C(=O)Nc2cnc3[nH]c(-c4ccc(F)c(C#N)c4F)cc3c2)c1C` [P-2261, N-(2-(3-cyano-2,4-difluorophenyl)-1H-pyrrolo[2,3-b]pyridin-5-yl)-4,5-dimethyl-1H-pyrazole-3-carboxamide] as the compound, how does the IC50 read?
Answer: Its IC50 is under 10 µM.

Question: With `Cc1[nH]nc(C(=O)Nc2cnc3[nH]c(-c4ccc(F)c(C)c4C)cc3c2)c1C` [P-2262, N-(2-(4-fluoro-2,3-dimethylphenyl)-1H-pyrrolo[2,3-b]pyridin-5-yl)-4,5-dimethyl-1H-pyrazole-3-carboxamide] as the compound, how does the IC50 read?
Answer: The IC50 was under 10 µM.

Question: How did the IC50 turn out when `Cc1[nH]nc(C(=O)Nc2cnc3[nH]c(-c4ccccc4OC(F)F)cc3c2)c1C` [P-2263, N-(2-(2-(difluoromethoxy)phenyl)-1H-pyrrolo[2,3-b]pyridin-5-yl)-4,5-dimethyl-1H-pyrazole-3-carboxamide] was run?
Answer: Its IC50 is under 10 µM.

Question: For `Cc1[nH]nc(C(=O)Nc2cnc3[nH]c(-c4cccc(F)c4OC(F)F)cc3c2)c1C` [P-2264, N-(2-(2-(difluoromethoxy)-3-fluorophenyl)-1H-pyrrolo[2,3-b]pyridin-5-yl)-4,5-dimethyl-1H-pyrazole-3-carboxamide], which IC50 is on record?
Answer: Its IC50 is under 10 µM.
